We go through 7 molecules from patent US11041000B2, “Peptide inhibitors of interleukin-23 receptor and their use to treat inflammatory diseases” (priority 2019, dated 2021).

Numbered stars: 1 amine (or outer) side, 2 acyl side, 3 side chain; on linkers, the order of the positions; unused ones are H or OH. Bridge positions count the residues as written; N and C are the ends. Square brackets hold non-standard residues; d marks the D form. Peptide text beside a SMILES is read from it. Trp(7-Me) = Cc1cccc2c(C[C@H](N)C(=O)O)c[nH]c12; Abu(4-yl) = O=C([C@H](CC[*:3])N[*:1])[*:2]; 2Nal = N[C@@H](Cc1ccc2ccccc2c1)C(=O)O; AEF = NCCOc1ccc(C[C@H](N)C(=O)O)cc1; Cit = NC(=O)NCCC[C@H](N)C(=O)O; Pen = CC(C)(S)[C@H](N)C(=O)O; αMeK = C[C@](N)(CCCCN)C(=O)O; Aib = CC(C)(N)C(=O)O

Data set [1] can be described thus: Stability in simulated gastric fluid (SGF). Format: in vitro ADME. Conditions: simulated gastric fluid with porcine pepsin, pH 2, 37° C., 20 μM peptide.
Description: SGF was prepared by adding 20 mg NaCl, 32 mg porcine pepsin (MP Biochemicals, catalog 02102599), and 70 μl HCl to 10 ml water (final pH=2). Aliquots of SGF (0.5 ml each) were pre-warmed at 37° C. To start the reaction, 1 μl of peptide stock solution (10 mM in DMSO) was added to 0.5 ml SGF and thoroughly mixed such that the final peptide concentration was 20 μM. The reactions were incubated at 37° C. with gentle shaking. At each time point (0, 15, 30, 60 min) 50 μl aliquots were removed and added to 200 ul acetonitrile containing 0.1% formic acid to quench the reaction. Samples are stored at 4° C. until the end of the experiment and centrifuged at 10,000 rpm for 5 minutes. Aliquots of the supernatant were removed, diluted 1:1 into distilled water containing internal standard, and analyzed by LCMS/MS. Percent remaining at each timepoint was calculated based on the peak area response ratio of test to compound to internal standard. Time 0 was set to 100%, and all later timepoints were calculated relative to time 0. Half-lives were calculated by fitting to a first-order exponential decay equation using GraphPad.
The target of data set [2] is IL-23R-expressing DB cells (Homo sapiens, UniProt Q5VWK5). The data set is described as follows: DB cells IL23R pSTAT3 cell assay (pStat3HTRF). It counts as cell-based. Conditions: DB cells stimulated with IL-23 0.5 nM, 30 minutes, phospho-STAT3 in cell lysates; read-out: pStat3 HTRF. From the text: Human ELISA indicates the IL23-IL23R competitive binding assay described below, Rat ELISA indicates the rat IL-23R competitive binding ELISA assay described below, and pStat3HTRF indicates the DB cells IL-23R pSTAT3 cell assay described below. The peptides depicted in Table E1 are cyclized via a disulfide bridge formed between two Pen residues in these peptides. The peptides depicted in Table E2 are cyclized via a thioether bond between the indicated amino acid residues. Table E2 provides an illustrative structure depicting thioether cyclization, which is indicated in the table by the term “cyclo,” with the cyclic region bracketed immediately following the term “cyclo.” For certain peptides, the residue Abu is present where indicated, whereas in other embodiments, e.g., those related to the non-cyclized form, the Abu may be referred to as a hSer(Cl) or homoSer residue. The petpides depicted in Table E3 are cyclized via a disulfide bridge formed between two Pen residues or a thioether bond between Abu and Cys.
IL-23 plays a central role in supporting and maintaining Th17 differentiation in vivo. This process is thought to be mediated primarily through the Signal Transducer and Activator of Transcription 3 (STAT3), with phosphorylation of STAT3 (to yield pSTAT3) leading to upregulation of RORC and pro-inflammatory IL-17. This cell assay examines the levels of pSTAT3 in IL-23R-expressing DB cells when stimulated with IL-23 in the presence of test compounds. Serial dilutions of test peptides and IL-23 (Humanzyme #HZ-1261) at a final concentration of 0.5 nM, were added to each well in a 96 well tissue culture plate (Corning #CLS3894). DB cells (ATCC #CRL-2289), cultured in RPMI-1640 medium (Thermo Scientific #11875093) supplemented with 10% FBS, were added at 5×10E5 cells/well and incubated for 30 minutes at 37° C. in a 5% CO2 humidified incubator. Changes in phospho-STAT3 levels in the cell lysates were detected using the Cisbio HTRF pSTAT3 (Tyr705) Cellular Assay Kit (Cisbio #62AT3PEH), according to manufacturer's Two Plate Assay protocol.

Data set [3] can be described thus: Stability in simulated intestinal fluid (SIF). Format: in vitro ADME. The conditions noted are these: simulated intestinal fluid with pancreatin, pH 6.8, 37° C., matrix is 100 fold dilution of standard SIF concentration; for SIF t½: 20 μM; for half-life at 20 μM: read-out: SIF t½ (converted).
Data set [4] is described as follows: Stability in human fecal homogenate. Format: in vitro ADME. The conditions noted are these: 20% fecal homogenate (supernatant), pH 6.8, 20% human fecal homogenate, anaerobic, 37° C., read-out: t½: Human Feces anaerobic (converted). As for the experimental part: (§1) Centrifuged the homogenate at 2800×g for 15 min. The supernatant is taken out and used for incubations. […] The final test compound concentration was 20 μM.

A short description of data set [5]: Stability in cynomolgus monkey fecal homogenate. It counts as in vitro ADME. The conditions noted are these: 20% fecal homogenate (supernatant), pH 6.8, 20% cynomolgus monkey fecal homogenate, anaerobic, 37° C., read-out: t½: Monkey Feces anaerobic (converted). As to the method:
as §1

A short description of another data set: Stability in rat plasma. It counts as in vitro ADME. The conditions noted are these: both sexes, SD rat plasma, EDTA, 37° C., read-out: t½: Rat Plasma EDTA (converted).
In data set [6] the test system is Natural killer (NK) cells. Nature of the data set: NK cell based assay (IL-23-induced IFNγ). Conditions: primary human NK cells, IL-23 plus IL-18 10 ng/mL, IFNγ in supernatant after 20 to 24 hours. As for the experimental part:
Natural killer (NK) cells, purified from human peripheral blood of healthy donors by negative selection (Miltenyi Biotech, Cat #130-092-657), were cultured in complete media (RPMI 1640 containing 10% FBS, L-glutamine and penicillin-streptomycin) in the presence of IL-2 (RnD, Cat #202-IL-010/CF) at 25 ng/mL. After 7 days, cells were centrifuged, and resuspended in complete media at 1E6 cells/mL. […] After 20 to 24 hours, IFNγ in the supernatant was quantified using Quantikine ELISA (RnD, Cat #DIF50).

Sequence of IL-23R-expressing DB cells (Q5VWK5 24-629 limits assumed): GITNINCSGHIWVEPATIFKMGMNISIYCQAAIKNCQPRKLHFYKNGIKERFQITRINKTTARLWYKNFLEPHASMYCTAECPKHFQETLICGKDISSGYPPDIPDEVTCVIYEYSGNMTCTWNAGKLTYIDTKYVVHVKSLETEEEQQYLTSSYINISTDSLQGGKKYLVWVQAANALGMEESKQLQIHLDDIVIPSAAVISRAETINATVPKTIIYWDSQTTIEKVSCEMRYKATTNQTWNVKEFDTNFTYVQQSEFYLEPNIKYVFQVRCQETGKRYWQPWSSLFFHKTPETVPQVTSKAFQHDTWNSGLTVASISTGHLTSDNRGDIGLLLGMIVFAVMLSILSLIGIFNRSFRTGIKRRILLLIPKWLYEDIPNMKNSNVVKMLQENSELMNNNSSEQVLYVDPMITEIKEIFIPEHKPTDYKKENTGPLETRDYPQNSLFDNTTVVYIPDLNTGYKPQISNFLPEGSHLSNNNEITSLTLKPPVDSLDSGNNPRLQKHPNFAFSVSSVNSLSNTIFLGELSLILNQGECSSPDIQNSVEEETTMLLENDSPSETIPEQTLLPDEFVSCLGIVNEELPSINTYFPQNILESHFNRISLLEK

Regarding `CC(=O)NCCCC[C@H](NC(=O)[C@](C)(CCCCN)NC(=O)[C@H](Cc1ccc2ccccc2c1)NC(=O)[C@H](Cc1ccc(OCCN)cc1)NC(=O)[C@H]1NC(=O)[C@H](CCCNC(N)=O)NC(=O)[C@H](Cc2c[nH]c3c(C)cccc23)NC(=O)[C@H]([C@@H](C)O)NC(=O)[C@H](CC(N)=O)NC(=O)[C@@H](NC(C)=O)C(C)(C)SSC1(C)C)C(=O)N[C@@H](CC(N)=O)C(=O)NC(C)(C)C(N)=O` [compound 264] (Ac-[Pen]NT[Trp(7-Me)][Cit][Pen][AEF][2Nal][αMeK]K(Ac)N[Aib]-NH2; disulfide 1-6), the “SGF t½” value in data set [1] is 24 h.
As for `CC(=O)NCCCC[C@H](NC(=O)[C@](C)(CCCCN)NC(=O)[C@H](Cc1ccc2ccccc2c1)NC(=O)[C@H](Cc1ccc(OCCN)cc1)NC(=O)[C@H]1NC(=O)[C@H](CCCCNC(=O)C2CCCCC2)NC(=O)[C@H](Cc2c[nH]c3c(C)cccc23)NC(=O)[C@H]([C@@H](C)O)NC(=O)[C@H](CC(N)=O)NC(=O)[C@@H](NC(C)=O)C(C)(C)SSC1(C)C)C(=O)N[C@@H](CC(N)=O)C(=O)N[C@H](CC(C)C)C(N)=O` [compound 316], the IC50 in data set [2] amounted to 5.6 nM. The “SIF t½” value in data set [3] is 24 h. Moreover, the half-life at 20 μM (in data set [4]; in data set [5]; in the data set “Stability in rat plasma”) was above 24 h throughout.
On to `CC(=O)NCCCC[C@H](NC(=O)[C@](C)(CCCCN)NC(=O)[C@H](Cc1ccc2ccccc2c1)NC(=O)[C@H](Cc1ccc(OCCN)cc1)NC(=O)[C@H]1NC(=O)[C@H](CCCCNC(=O)C(C)(C)N)NC(=O)[C@H](Cc2c[nH]c3c(C)cccc23)NC(=O)[C@H]([C@@H](C)O)NC(=O)[C@H](CC(N)=O)NC(=O)[C@@H](NC(C)=O)C(C)(C)SSC1(C)C)C(=O)N[C@@H](CC(N)=O)C(=O)N[C@H](CC(C)C)C(N)=O` [compound 322], for which the IC50 in data set [2] was 0.648 nM. The “SIF t½” value in data set [3] was 24 h. For the same molecule, the half-life at 20 μM (in data set [4]; in data set [5] (cynomolgus monkey); in “Stability in rat plasma”) was above 24 h each time.
For the molecule `CC(=O)NCCCC[C@@H]1NC(=O)[C@H](Cc2c[nH]c3c(C)cccc23)NC(=O)[C@H]([C@@H](C)O)NC(=O)[C@H](CCC(N)=O)NC(=O)[C@@H](NC(=O)[C@@H](CCCNC(=N)N)NC(C)=O)CCSC[C@@H](C(=O)N[C@@H](Cc2ccc(OCCN)cc2)C(=O)N[C@@H](Cc2ccc3ccccc3c2)C(=O)N[C@@](C)(CCCCN)C(=O)N[C@@H](CCCCNC(C)=O)C(=O)N[C@@H](CC(N)=O)C(=O)N[C@H](CC(C)C)C(N)=O)NC1=O` [compound 325] (Ac-[dR][Abu(4-yl)]QT[Trp(7-Me)]K(Ac)C[AEF][2Nal][αMeK]K(Ac)N[dL]-NH2; thioether 2-7), in data set [2], the IC50 was 4.45 nM. Further, the half-life at 20 μM in data set [3] is 14 h; in data set [4], above 24 h; in data set [5] (cynomolgus monkey), 22 h; in the data set “Stability in rat plasma”, above 24 h.
As for `CC(=O)NCCCC[C@H](NC(=O)[C@](C)(CCCCN)NC(=O)[C@H](Cc1ccc2ccccc2c1)NC(=O)[C@H](Cc1ccc(OCCN)cc1)NC(=O)[C@H]1NC(=O)[C@H](CCCNC(N)=O)NC(=O)[C@H](Cc2c[nH]c3c(C)cccc23)NC(=O)[C@H]([C@@H](C)O)NC(=O)[C@H](CC(N)=O)NC(=O)[C@@H](NC(C)=O)C(C)(C)SSC1(C)C)C(=O)N[C@@H](CC(N)=O)C(=O)NC(C)(C)C(=O)N[C@H](CCCNC(=N)N)C(N)=O` [compound 345] (Ac-[Pen]NT[Trp(7-Me)][Cit][Pen][AEF][2Nal][αMeK]K(Ac)N[Aib][dR]-NH2; disulfide 1-6), the IC50 in data set [2] is 0.639 nM. For the same molecule, the half-life at 20 μM is 12 h in data set [3], above 24 h in data set [4], above 24 h in data set [5] and above 24 h in “Stability in rat plasma”.
Take `CC(=O)NCCCC[C@@H]1NC(=O)[C@H](Cc2c[nH]c3c(C)cccc23)NC(=O)[C@H]([C@@H](C)O)NC(=O)[C@H](CC(N)=O)NC(=O)[C@@H](NC(C)=O)C(C)(C)SSC(C)(C)[C@@H](C(=O)N[C@@H](Cc2ccc(OCCN)cc2)C(=O)N[C@@H](Cc2ccc3ccccc3c2)C(=O)N[C@@](C)(CCCCN)C(=O)N[C@@H](CCCCNC(=O)C2CCCCC2)C(=O)N[C@@H](CC(N)=O)C(=O)N[C@H](CC(C)C)C(N)=O)NC1=O` [compound 357]: the IC50 in data set [6] turned out to be 3.8 nM. In addition, the half-life at 20 μM in data set [3] was 14 h; in data set [4], above 24 h; in data set [5] it was above 24 h; in the data set “Stability in rat plasma” it was above 24 h.
Regarding `CCCCCCCC(=O)NCCCC[C@H](NC(=O)[C@](C)(CCCCN)NC(=O)[C@H](Cc1ccc2ccccc2c1)NC(=O)[C@H](Cc1ccc(OCCN)cc1)NC(=O)[C@H]1NC(=O)[C@H](CCCCNC(C)=O)NC(=O)[C@H](Cc2c[nH]c3c(C)cccc23)NC(=O)[C@H]([C@@H](C)O)NC(=O)[C@H](CC(N)=O)NC(=O)[C@@H](NC(C)=O)C(C)(C)SSC1(C)C)C(=O)N[C@@H](CC(N)=O)C(=O)N[C@H](CC(C)C)C(N)=O` [compound 358], the IC50 in data set [2] was 3.03 nM. Further, in data set [3], the “SIF t½” value was 24 h. Moreover, the half-life at 20 μM (in data set [4]; in data set [5]; in the data set “Stability in rat plasma”) was above 24 h throughout.
